Where two headings read alike, the source gives them in different places.
Assays:
Assay type in all cases: physicochemical
[1] = Solubility test of amorphous substance (room temperature); settings: read-out: Roughly measured solubility
Method: About 10 mg of amorphous substance was weighted and placed into an 8 mL glass bottle, and a solvent was gradually added at room temperature. 5 μL of solvent was added each time until all the solids were dissolved, and if 8 mL of solvent was added and the solids were not dissolved, the solvent addition was stopped. Table 1. Test results of solubility of amorphous substance of compound represented by Formula (1) (room temperature)

[2] = Dynamic vapor sorption (DVS) hygroscopicity
Method: The sample was analyzed through Intrinsic DVS ([…]). The amount of test sample was about 20-30 mg. The temperature of a test room was controlled between 25±1° C., the relative humidity increased from 0% to 90% and then decreased to 0% at a rate of 10%/h, and mass data was recorded every 20 s.
The DVS curve was acquired from DVS Intrinsic through an SMS (Surface Measurement Systems). The relative humidity at 25° C. was calibrated according to deliquescent points of LiCl, Mg(NO3)2 and KCl.

[3] = Stability Test 1 (80° C., lighting, 25° C./60% RH, 40° C./75% RH; HPLC)
Method: • Chromatographic conditions: • Chromatographic column: C18 column; • Running time: 60 min; • UV detector: 210 nm; • Flow rate: 1.0 mL/min; • Injection volume: 5 μL.
A certain amount of crystals and amorphous raw materials were weighed and placed in liquid phase vials, and a total of 5 parts were prepared. The 5 parts were respectively placed under 80° C. (opened), 25° C./60% RH (opened), and 40° C./75% RH (opened) and in a stable lighting chamber (closed, 5000±500 Lx), and the stability under lighting for 10 days, 80° C. 1 day, and the chemical stability under 25° C. and 60% RH and under 40° C. and 75% RH for 1 week were determined by liquid phase, and the XRPD of the solid was determined.

[4] = 25° C., 60% RH (opened), 1 week
[5] = 40° C., 75% RH (opened), 1 week
[6] = Lighting (closed, 5000±500 Lx), 10 Days

CC(C)C(=O)O[C@@H](C)OC(=O)NC(C)(C)C(=O)N[C@H](COCc1ccccc1)C(=O)N1CCC2(CC1)CN(S(C)(=O)=O)c1ccccc12 [amorphous substance, (4R,11R)-7,7-dimethyl-4-(1-(methylsulfonyl)spiro[indoldoline-3,4′-piperidine]-1′-carbonyl)-6,9-dioxo-1-phenyl-2,10-dioxa-5,8-diazadodecane-11-ylisobutyrate]
solubility ([1]; organic solvent or mixture, thermodynamic from solid, 1,4-Dioxane): > 760 mg/mL | solubility ([1]; organic solvent or mixture, thermodynamic from solid, Acetone): > 520 mg/mL | solubility ([1]; organic solvent or mixture, thermodynamic from solid, Acetonitrile): > 587 mg/mL | solubility ([1]; organic solvent or mixture, thermodynamic from solid, Anisole): > 510 mg/mL | solubility ([1]; organic solvent or mixture, thermodynamic from solid, Butanone): > 700 mg/mL | solubility ([1]; organic solvent or mixture, thermodynamic from solid, Cyclohexane): < 1.2 mg/mL | solubility ([1]; organic solvent or mixture, thermodynamic from solid, Dichloromethane): > 798 mg/mL | solubility ([1]; organic solvent or mixture, thermodynamic from solid, Dimethyl sulfoxide): > 450 mg/mL | solubility ([1]; organic solvent or mixture, thermodynamic from solid, Ethanol): > 480 mg/mL | solubility ([1]; organic solvent or mixture, thermodynamic from solid, Ethyl acetate): > 600 mg/mL | solubility ([1]; organic solvent or mixture, thermodynamic from solid, Ethyl formate): > 405 mg/mL | solubility ([1]; organic solvent or mixture, thermodynamic from solid, Isopropanol): > 432 mg/mL | solubility ([1]; organic solvent or mixture, thermodynamic from solid, Isopropyl acetate): > 643 mg/mL | solubility ([1]; organic solvent or mixture, thermodynamic from solid, Methanol): > 725 mg/mL | solubility ([1]; organic solvent or mixture, thermodynamic from solid, Methyl isobutyl ketone): > 400 mg/mL | solubility ([1]; organic solvent or mixture, thermodynamic from solid, Methyl tert-butyl ether): > 70 mg/mL | solubility ([1]; organic solvent or mixture, thermodynamic from solid, N-heptane): < 1.3 mg/mL | solubility ([1]; organic solvent or mixture, thermodynamic from solid, N-hexane): < 1.2 mg/mL | solubility ([1]; organic solvent or mixture, thermodynamic from solid, N-propanol): > 460 mg/mL | solubility ([1]; organic solvent or mixture, thermodynamic from solid, Tetrahydrofuran): > 553 mg/mL | solubility ([1]; organic solvent or mixture, thermodynamic from solid, Toluene): > 473 mg/mL | solubility ([1]; thermodynamic from solid, Water): < 1.3 mg/mL | Hygroscopicity (DVS) ([2]; 80% humidity, 25° C.): slightly hygroscopic | Solid form by XRPD before and after DVS test ([2]; XRPD before vs after DVS): the morphology of the solid did not change | Degradation (%) [3, 4]: 0.01% | Purity (%) [3, 4]: 99.27% | Degradation (%) [3, 5]: 0.03% | Purity (%) [3, 5]: 99.25% | Degradation (%) ([3]; 80° C. (opened), 1 Day): 0.18% | Purity (%) ([3]; 80° C. (opened), 1 Day): 99.10% | Purity (%) ([3]; Initial): 99.28% | Degradation (%) [3, 6]: 1.02% | Purity (%) [3, 6]: 98.26%
